Assay results taken from patent US8927709B2, “Hepatitis C virus inhibitors” (Enanta Pharmaceuticals, Inc., priority 2009, dated 2015).

Tested on: HCV 1b genotype replicon
Assay: HCV genotype-1b replicon assay (qRT-PCR or luciferase)
Type: cell-based
Settings: Hepatitis C virus, HCV 1b replicon cell lines (SGR 11-7 or Huh-luc/neo-ET), a/b entries tested as mixture of the two compounds, read-out: Genotype-1b replicon EC50 Range
Description: HCV replicon cell lines (kindly provided by R. Bartenschlager) isolated from colonies as described by Lohman et. al. (Lohman et al. (1999) Science 285: 110-113, expressly incorporated by reference in its entirety) and used for all experiments. The HCV replicon has the nucleic acid sequence set forth in EMBL Accession No.: AJ242651, the coding sequence of which is from nucleotides 1801 to 8406.
The coding sequence of the published HCV replicon was synthesized and subsequently assembled in a modified plasmid pBR322 (Promega, Madison, Wis.) using standard molecular biology techniques. […]
EC50 values of single agent compounds and combinations were determined by HCV RNA detection using quantitative RT-PCR, according to the manufacturer's instructions, with a TAQMAN® One-Step RT-PCR Master Mix Reagents Kit (Cat# AB 4309169, Applied Biosystems) on an ABI Model 7500 thermocycler. The TaqMan primers used for detecting and quantifying HCV RNA were obtained from Integrated DNA Technologies. HCV RNA was normalized to GAPDH RNA levels in drug-treated cells, which was detected and quantified using the Human GAPDH Endogenous Control Mix (Applied Biosystems, AB 4310884E). […] Chemical agent cytotoxicity was evaluated using an MTS assay according to the manufacturer's directions (Promega). […]

Structure (SMILES)	EC50 [nM]
COC(=O)N[C@H](C(=O)N1CCC(c2nc(-c3ccc(-c4ccc(-c5c[nH]c([C@@H]6CCCN6C(=O)[C@@H](NC(=O)OC)C(C)C)n5)cc4)cc3)c[nH]2)C1)C(C)C (some centres unmarked) [Example 345]	< 1
COC(=O)N[C@H](C(=O)N1CCC(c2nc3cc(-c4ccc(-c5c[nH]c([C@@H]6CCCN6C(=O)[C@@H](NC(=O)OC)C(C)C)n5)cc4)ccc3[nH]2)C1)C(C)C (some centres unmarked) [Example 343]	1 to 10
